# Measured values reported in patent US10696639B2, “Heterocyclic compounds as HIV protease inhibitors” (Merck Sharp & Dohme Corp., priority 2016, dated 2020).
# Target: T1, wild-type HIV-1 protease (Human immunodeficiency virus type 1 group M subtype B, UniProt P04585)
# T1 construct: Escherichia coli expressed wild-type HIV-1 protease protein; made in house; host or cells: Escherichia coli
# Assay: Assay for Inhibition of Microbial Expressed HIV Protease
# Format: biochemical
# Settings: E. coli expressed wild-type HIV-1 protease, peptide substrate cleavage, LC-MS readout; mean of at least two independent experiments; read-out: HIV Pr Enzyme HIV1 PR IC50
# Experimental: Assay for Inhibition of Microbial Expressed HIV Protease
# Inhibition of Escherichia coli expressed wild-type HIV-1 protease protein was carried out with a peptide substrate [Val-Ser-Gln-Asn-(βnaphtyl)Ala-Pro-Ile-Val]. The inhibitor compound was preincubated with HIV-1 protease enzyme in assay buffer (50 mM sodium acetate, pH 5.5, 100 mM NaCl, and 0.1% BSA) for 30 minutes at room temperature. Peptide substrate was added to […] in a total volume of 20 μL containing 20 pM HIV-1 protease (final) after which the reaction was incubated for 1 hour at 30° C. The reaction was quenched by the addition of formic acid and HIV protease inhibitor indinavir to 0.012% and 150 nM final concentrations, respectively. Product formation was determined after separation of product and substrate on a ZORBAX Eclipse XDB-C18 column (Aligent Technologies, Santa Clara, Calif., USA) connected to an API 4000™ mass spectrometer (AB Sciex, Pte. Ltd., Concord Ontario, Canada) with multiple reaction monitoring (transitions were 644.5/428.9 and 615.4/422.2 (M1/M3) for product and indinavir respectively). The extent of inhibition of the reaction was determined from the peak area of the products. Analysis of the products, independently synthesized, provided quantitation standards and confirmation of the product composition.
row,Structure (SMILES),IC50 [µM]
1,"CC[C@@H](CCCN1C(=N)N[C@](CC(C)C)(c2ccccc2)C1=O)NC(=O)[C@H](Cc1cccc(Cl)c1)NC(=O)OC [Example 49, 3-chloro-N-{(1S)-1-ethyl-4-[(4R)-2-imino-4-(2-methylpropyl)-5-oxo-4-phenylimidazolidin-1-yl]butyl}-N-alpha-(methoxycarbonyl)-L-phenylalaninamide]",0.015
2,"CC[C@@H](CCCN1C(=N)N[C@](CC(C)C)(c2ccccc2)C1=O)NC(=O)[C@H](Cc1ccccc1Cl)NC(=O)OC [Example 50, 2-chloro-N-{(1S)-1-ethyl-4-[(4R)-2-imino-4-(2-methylpropyl)-5-oxo-4-phenylimidazolidin-1-yl]butyl}-N-alpha-(methoxycarbonyl)-L-phenylalaninamide]",0.006
3,"COC(=O)N[C@@H](Cc1ccccc1)C(=O)NCCC[C@H](C1CC1)N1C(=N)N[C@](CC(C)C)(c2ccccc2)C1=O [Example 51, N-{(4R)-4-cyclopropyl-4-[(4R)-2-imino-4-(2-methylpropyl)-5-oxo-4-phenylimidazolidin-1-yl]butyl}-N-alpha-(methoxycarbonyl)-L-phenylalaninamide]",0.007
4,"COC(=O)N[C@@H](Cc1ccccc1)C(=O)NCCC[C@@H](C1CC1)N1C(=N)N[C@](CC(C)C)(c2ccccc2)C1=O [Example 52, N-{(4S)-4-cyclopropyl-4-[(4R)-2-imino-4-(2-methylpropyl)-5-oxo-4-phenylimidazolidin-1-yl]butyl}-N-alpha-(methoxycarbonyl)-L-phenylalaninamide]",0.605
5,"COC(=O)N[C@@H](Cc1ccccc1)C(=O)NCCC[C@@H](CC1CC1)N1C(=N)N[C@](CC(C)C)(c2ccccc2)C1=O [Example 53, N-{(4S)-5-cyclopropyl-4-[(4R)-2-imino-4-(2-methylpropyl)-5-oxo-4-phenylimidazolidin-1-yl]pentyl}-N-alpha-(methoxycarbonyl)-L-phenylalaninamide]",0.249
6,"COC(=O)N[C@@H](Cc1ccccc1)C(=O)NCCC[C@@H](C)N1C(=N)N[C@](CC(C)C)(c2ccccc2)C1=O [Example 54, N-{(4R)-4-[(4R)-2-imino-4-(2-methylpropyl)-5-oxo-4-phenylimidazolidin-1-yl]pentyl}-N-alpha-(methoxycarbonyl)-L-phenylalaninamide]",0.19
7,"CC[C@H](CCCNC(=O)[C@H](Cc1ccccc1)NC(=O)OC)N1C(=N)N[C@](CC(C)C)(c2ccccc2)C1=O [Example 55, N-{(4R)-4-[(4R)-2-imino-4-(2-methylpropyl)-5-oxo-4-phenylimidazolidin-1-yl]hexyl}-N-alpha-(methoxycarbonyl)-L-phenylalaninamide]",0.532
8,"COC(=O)N[C@@H](Cc1ccccc1)C(=O)NCCC[C@@H](CCC1CC1)N1C(=N)N[C@](CC(C)C)(c2ccccc2)C1=O [Example 56, N-{(4R)-6-cyclopropyl-4-[(4R)-2-imino-4-(2-methylpropyl)-5-oxo-4-phenylimidazolidin-1-yl]hexyl}-N-alpha-(methoxycarbonyl)-L-phenylalaninamide]",0.1
